Reference: article PMC9306949 (Clinical Pharmacology in Drug Development, 2022)
“Also recorded” adds a separate entry of the source. Read-outs that look alike come from different tables or passages of the source. Marks after values point to notes of the source that are not given here.

Columns and labels:
[1] = type: in vivo, human; details: for M/P (AUC0‐t), metabolite-to-parent ratio / AUC0‐24 / AUC0‐inf / AUC0‐t / C24 / Cmax: mean (%CV); for t1/2 / AUC0‐24 / AUC0‐inf / AUC0‐t / C24 / Cmax / tmax: plasma; for t1/2: arithmetic mean (%CV); for tmax: median (min-max)
[2] = cited from earlier work
[3] = Urine excretion of navtemadlin and M1; type: in vivo, human
[4] = cited from earlier work; remark: listed apart in the source
[5] = Treatment A (reference): new tablet fasted, drug-load analysis
[6] = Treatment A (reference): new tablet fasted, food-effect analysis
[7] = Treatment B (test 1): new tablet fed, food-effect analysis
[8] = Treatment B: 60-mg new tablet, fed (high-fat meal)
[9] = Treatment C (test 2): old tablet fasted, drug-load analysis
[10] = Treatment C: 60-mg old tablet, fasted
[11] = Treatment A: 60-mg new tablet, fasted
[12] = test/reference: B (new tablet fed) vs A (new tablet fasted)
[13] = test/reference: C (old tablet fasted) vs A (new tablet fasted)
[14] = period 1 (old tablet fasted), 0-48 h urine
[15] = patients with solid tumors or multiple myeloma

- tmax, median ([1]; Treatment A (reference): new tablet fasted, average of 2, drug-load analysis): 2.5 ^d h
- tmax, median ([1]; Treatment A (reference): new tablet fasted, average of 2, food-effect analysis): 2.5 ^d h
- AUC0‐24, GLSM [1, 5]: 528, N = 30 ng • h/mL
- AUC0‐inf, GLSM [1, 5]: 701, N = 28 ng • h/mL
- AUC0‐t, GLSM [1, 5]: 646, N = 30 ng • h/mL
- Cmax, GLSM [1, 5]: 98, N = 30 ng/mL
- AUC0‐24, GLSM [1, 6]: 528, N = 30 ng • h/mL
- AUC0‐inf, GLSM [1, 6]: 710, N = 28 ng • h/mL
- AUC0‐t, GLSM [1, 6]: 646, N = 30 ng • h/mL
- Cmax, GLSM [1, 6]: 98, N = 30 ng/mL
- exposure in UGT1A1*28 heterozygous poor metabolizers (6/7 TA repeats) vs WT (6/6 TA repeats) ([1]; Treatment A, n = 16 vs n = 12): generally comparable
- AUC0‐24, GLSM [1, 7]: 465, N = 30 ng • h/mL
- AUC0‐inf, GLSM [1, 7]: 610, N = 22 ng • h/mL
- AUC0‐t, GLSM [1, 7]: 555, N = 30 ng • h/mL
- Cmax, GLSM [1, 7]: 117, N = 30 ng/mL
- tmax, median [1, 7]: 3.0 ^d h
- M/P (AUC0‐t), metabolite-to-parent ratio [1, 8]: 0.2 (38.3); 30
- AUC0‐24, GLSM [1, 9]: 506, N = 30 ng • h/mL
- AUC0‐inf, GLSM [1, 9]: 643, N = 26 ng • h/mL
- AUC0‐t, GLSM [1, 9]: 585, N = 30 ng • h/mL
- Cmax, GLSM [1, 9]: 84, N = 30 ng/mL
- tmax, median [1, 9]: 2.0 ^d h
- M/P (AUC0‐t), metabolite-to-parent ratio [1, 10]: 0.2 (34.3); 30
- acyl glucuronide to parent drug AUC0‐t ratio ([1]; after correction for molecular weight, across study groups): ≈ 0.2
- time of second peak after dosing (enterohepatic recirculation) ([1]; all 3 treatments): around 10 hours
- PK in H. pylori–positive vs H. pylori–negative subjects ([1]; n = 12 positive vs n = 18 negative): not markedly affected
- decrease in extent of exposure (AUC0‐24, AUC0‐t, AUC0‐inf) with a high‐fat meal ([1]; new tablet fed vs fasted): 12% to 18%
- increase in Cmax with a high‐fat meal ([1]; new tablet fed vs fasted): ≈ 18%; also recorded: ≈ 20%
- difference in median tmax between fed and fasted conditions, significance ([1]; new tablet, Wilcoxon signed-rank, alpha level of 0.1): not significant
- t1/2 [1, 11]: 16.2 (57.8); 46 h
- AUC0‐24 [1, 11]: 607 (60.9); 60 ng • h/mL
- AUC0‐inf [1, 11]: 849 (74.1); 46 ng • h/mL
- AUC0‐t [1, 11]: 782 (72.2); 60 ng • h/mL
- C24 [1, 11]: 7.82 (97.4); 60 ng/mL
- Cmax [1, 11]: 118 (70.0); 60 ng/mL
- tmax [1, 11]: 2.02 (1.00 – 6.00); 60 h
- AUC0‐24 [1, 8]: 532 (56.0); 30 ng • h/mL
- AUC0‐inf [1, 8]: 824 (61.1); 22 ng • h/mL
- AUC0‐t [1, 8]: 666 (65.8); 30 ng • h/mL
- C24 [1, 8]: 5.96 (87.8); 30 ng/mL
- Cmax [1, 8]: 133 (52.6); 30 ng/mL
- tmax [1, 8]: 3.00 (0.99 ‐ 4.02); 30 h
- t1/2 [1, 10]: 13.7 (68.5); 26 h
- AUC0‐24 [1, 10]: 609 (68.6); 30 ng • h/mL
- AUC0‐inf [1, 10]: 794 (71.6); 26 ng • h/mL
- AUC0‐t [1, 10]: 740 (77.5); 30 ng • h/mL
- C24 [1, 10]: 7.04 (109.6); 30 ng/mL
- Cmax [1, 10]: 101 (65.3); 30 ng/mL
- tmax [1, 10]: 2.01 (1.00 – 6.00); 30 h
- tmax, difference of medians (90%CI) ([1]; test-reference: B (new tablet fed) minus A (new tablet fasted)): 0.4 (‐0.002‐0.8) ^e , ^g h
- tmax, difference of medians (90%CI) ([1]; test-reference: C (old tablet fasted) minus A (new tablet fasted)): 0.1 (–0.3 to 0.6) ^e , ^g h
- AUC0‐24, % ratio of least squares means (90%CI) [1, 12]: 88.2 (82.2‐94.6) %
- AUC0‐inf, % ratio of least squares means (90%CI) [1, 12]: 86.0 (77.5‐95.4) %
- AUC0‐t, % ratio of least squares means (90%CI) [1, 12]: 85.9 (79.9‐92.3) %
- Cmax, % ratio of least squares means (90%CI) [1, 12]: 118.7%
- AUC0‐24, % ratio of least squares means (90%CI) [1, 13]: 95.8 (89.4‐102.7) %
- AUC0‐inf, % ratio of least squares means (90%CI) [1, 13]: 91.8 (85.3 to 98.6) %
- AUC0‐t, % ratio of least squares means (90%CI) [1, 13]: 90.6 (84.2 to 97.6) %
- Cmax, % ratio of least squares means (90%CI) [1, 13]: 85.7 (77.9‐94.2) %
- mean amount excreted in urine [3, 14]: 17.3 µg
- mean fraction of dose excreted in urine [3, 14]: 0.02%
- urine excretion ([3]; single 60-mg dose, healthy subjects): negligible
SMILES: CC(C)[C@@H](CS(=O)(=O)C(C)C)N1C(=O)[C@@](C)(CC(=O)O[C@@H]2O[C@H](C(=O)O)[C@@H](O)[C@H](O)[C@H]2O)C[C@H](c2cccc(Cl)c2)[C@H]1c1ccc(Cl)cc1 [M1, navtemadlin acyl glucuronide]
- share of excreted biliary radioactivity ([2]; rat bile): accounts for most of the excreted biliary radioactivity
- presence in feces ([2]; rat feces, hydrolysis in the intestine): not present in rat feces
- mean accumulation ([4]; 7‐day once‐daily dosing period, patients): < 2 fold
- mean (SD) terminal half‐life (t1/2) [4, 15]: 14.0 (6.07) hours
- mean metabolite‐to‐parent 24‐hour AUC ratio [4, 15]: 0.461
- mean tmax [4, 15]: 2 to 4 h
